Publication PMC7558399, “In Vitro Selective Growth-Inhibitory Activities of Phytochemicals, Synthetic Phytochemical Analogs, and Antibiotics against Diarrheagenic/Probiotic Bacteria and Cancer/Normal Intestinal Cells” (Pharmaceuticals, 2020)
In brackets after ≈: the same amount, converted by molar mass.

Legend:
Assay type in all cases: cell-based
[1] = tested on: Enterococcus faecalis (ATCC 29212); assay: Broth microdilution MIC, E. faecalis; settings: ATCC29212, growth inhibited by ≥80%, read-out: MIC
[2] = tested on: Lactobacillus rhamnosus (CCM 7091); assay: Broth microdilution MIC, L. rhamnosus; settings: Lacticaseibacillus rhamnosus, CCM7091; Lactobacillus rhamnosus; growth inhibited by ≥80%; read-out: MIC
[3] = tested on: Salmonella enterica ssp. enterica serovar Enteritidis (ATCC 13076); assay: Broth microdilution MIC, Salmonella Enteritidis; settings: Salmonella Enteritidis, growth inhibited by ≥80%, read-out: MIC
[4] = tested on: Vibrio parahaemolyticus (ATCC 17802); assay: Broth microdilution MIC, V. parahaemolyticus; settings: ATCC17802, growth inhibited by ≥80%, read-out: MIC
[5] = tested on: S. enterica ssp. enterica serovar Typhimurium (ATCC 14028); assay: Broth microdilution MIC, Salmonella Typhimurium; settings: Salmonella Typhimurium, growth inhibited by ≥80%, read-out: MIC
[6] = tested on: Lactobacillus reuteri (CCM 3625); assay: Broth microdilution MIC, L. reuteri; settings: Limosilactobacillus reuteri, CCM3625; Lactobacillus reuteri; growth inhibited by ≥80%; read-out: MIC
[7] = tested on: Bifidobacterium adolescentis (DSMZ 20087); assay: Broth microdilution MIC, B. adolescentis; settings: DSMZ20087, growth inhibited by ≥80%, read-out: MIC
[8] = tested on: Bifidobacterium breve (ATCC 15700); assay: Broth microdilution MIC, B. breve; settings: ATCC15700, growth inhibited by ≥80%, read-out: MIC
[9] = tested on: Clostridium difficile (DSMZ 12056); assay: microbe, parasite or virus in culture; settings: Clostridioides difficile, DSMZ12056; Clostridium difficile; […]; read-out: MIC
[10] = tested on: Lactobacillus casei (DSMZ 20011); assay: Broth microdilution MIC, L. casei; settings: Lacticaseibacillus casei, DSMZ20011; Lactobacillus casei; growth inhibited by ≥80%; read-out: MIC
[11] = tested on: intestinal cancer cells (HT29 and Caco-2); assay: MTT cytotoxicity assay, mean for intestinal cancer cells
[12] = tested on: Escherichia coli (ATCC 25922); assay: Broth microdilution MIC, E. coli; settings: ATCC25922, growth inhibited by ≥80%, read-out: MIC
[13] = tested on: Bifidobacterium longum ssp. longum (DSMZ 20219); assay: Broth microdilution MIC, B. longum ssp. longum; settings: DSMZ20219; Bifidobacterium longum ssp. longum; growth inhibited by ≥80%; read-out: MIC
[14] = tested on: HT29 (ATCC HTB 38) intestinal cancer cells; assay: MTT cytotoxicity assay, HT29; settings: Homo sapiens, HT-29, HT29, MTT, 72 h
[15] = tested on: 21 strains (diarrheagenic and probiotic bacteria); assay: organism not typed; settings: any of the 21 strains
[16] = tested on: Bacillus cereus (ATCC 14579); assay: Broth microdilution MIC, B. cereus; settings: ATCC14579, growth inhibited by ≥80%, median/mode, read-out: MIC
[17] = tested on: Shigella flexneri (ATCC 12022); assay: microbe, parasite or virus in culture; settings: ATCC12022
[18] = tested on: Clostridium perfringens (DSMZ 11778); assay: microbe, parasite or virus in culture; settings: DSMZ11778
[19] = tested on: Bifidobacterium bifidum (ATCC 29521); assay: Broth microdilution MIC, B. bifidum; settings: ATCC29521, growth inhibited by ≥80%, read-out: MIC
[20] = tested on: Bifidobacterium animalis spp. lactis (DSMZ 10140); assay: Broth microdilution MIC, B. animalis spp. lactis; settings: DSMZ10140; Bifidobacterium animalis spp. lactis; growth inhibited by ≥80%; read-out: MIC
[21] = tested on: probiotic bacteria (9 strains); assay: Broth microdilution MIC, probiotic bacteria as a group (mean or range over strains); settings: mean of 9 strains; >512 replaced with 1024; read-out: x¯ -PB ± SD: mean MIC for probiotic bacteria
[22] = tested on: diarrheagenic bacteria (12 strains); assay: microbe, parasite or virus in culture; settings: mean of 12 strains; >512 replaced with 1024; read-out: x¯ -DB ± SD: mean MIC for diarrheagenic bacteria
[23] = tested on: E. coli 0175:H7 (NCTC 12900); assay: microbe, parasite or virus in culture; settings: Escherichia coli, NCTC12900
[24] = tested on: Caco-2 (ATCC HTB 37) intestinal cancer cells; assay: MTT cytotoxicity assay, Caco-2; settings: Homo sapiens, Caco-2, MTT, 72 h
[25] = tested on: Yersinia enterocolitica (ATCC 9610); assay: Broth microdilution MIC, Y. enterocolitica; settings: ATCC9610, growth inhibited by ≥80%, read-out: MIC
[26] = tested on: Bacteroides fragilis (ATCC 25285); assay: Broth microdilution MIC, B. fragilis; settings: ATCC25285, growth inhibited by ≥80%, read-out: MIC
[27] = tested on: FHs 74 Int (ATCC CCL 241) intestinal normal cells; assay: MTT cytotoxicity assay, FHs 74 Int; settings: FHs74Int, 72 h, FHs 74 Int (intestinal normal cells), MTT
[28] = tested on: Listeria monocytogenes (ATCC 7644); assay: Broth microdilution MIC, L. monocytogenes; settings: ATCC7644, growth inhibited by ≥80%, read-out: MIC
[29] = read-out: IC80 ± SD (80% inhibitory concentration of proliferation)

SMILES: O=S(=O)(O)c1cc(I)c(O)c2ncccc12 [FRN, 7-iodo-8-hydroxyquinoline-5-sulfonic acid]
- MIC [1]: > 512 µg/mL
- MIC [2]: 512 µg/mL (≈ 1460 µM)
- MIC [3]: > 512 µg/mL
- MIC [4]: 256 µg/mL (≈ 729 µM)
- MIC [5]: > 512 µg/mL
- MIC [6]: 512 µg/mL (≈ 1460 µM)
- MIC [7]: 256 µg/mL (≈ 729 µM)
- MIC [8]: 512 µg/mL (≈ 1460 µM)
- MIC [9]: 64 µg/mL (≈ 182 µM)
- MIC [10]: 256 µg/mL (≈ 729 µM)
- IC50 ([11]; mean of HT29 and Caco-2, >512 replaced with 1024, read-out: x¯ -CC ± SD: mean IC50 for intestinal cancer cells): 70.8 ± 16 µg/mL (≈ 202 µM)
- IC80 ([11]; read-out: x¯ -CC ± SD: mean IC80 for intestinal cancer cells): 145 ± 4.8 µg/mL (≈ 412 µM)
- MIC [12]: > 512 µg/mL
- MIC [13]: 256 µg/mL (≈ 729 µM)
- IC50 ([14]; read-out: IC50 ± SD): 86.3 ± 12 µg/mL (≈ 246 µM)
- IC80 [14, 29]: 149 ± 6 µg/mL (≈ 425 µM)
- MIC [15]: ≥ 64 µg/mL
- MIC [16]: 512 µg/mL (≈ 1460 µM)
- MIC [17]: > 512 µg/mL
- MIC [18]: 64 µg/mL (≈ 182 µM)
- MIC [19]: 512 µg/mL (≈ 1460 µM)
- MIC [20]: 512 µg/mL (≈ 1460 µM)
- MIC [21]: 384 ± 148 µg/mL (≈ 1090 µM)
- MIC [22]: 715 ± 388 µg/mL (≈ 2040 µM)
- MIC [23]: > 512 µg/mL
- IC50 ([24]; read-out: IC50 ± SD): 55.2 ± 4.8 µg/mL (≈ 157 µM)
- IC80 [24, 29]: 140 ± 26 µg/mL (≈ 398 µM)
- MIC [25]: > 512 µg/mL
- MIC [26]: 128 µg/mL (≈ 365 µM)
- IC50 ([27]; read-out: IC50 ± SD): 22.6 ± 3.3 µg/mL (≈ 64.4 µM)
- IC80 [27, 29]: 46 ± 2.2 µg/mL (≈ 131 µM)
- MIC [28]: 512 µg/mL (≈ 1460 µM)
